The subject of one test is Syrian Golden hamsters. The experiment in a line: In vivo serum cholesterol lowering in hamsters fed a cholesterol test diet. The note with it: for inhibition in vivo at 100 mg/kg/day: Mesocricetus auratus, feed or water, 168 h, read-out: Percent Lowering of Cholesterol from Control Value Mean; for Serum Cholesterol Mean: 0.2% (w/w) in Cholesterol Test Diet for one week, equivalent to 100 mg/kg/day, groups of six, control mean 337. Here is the method:
Syrian Golden hamsters were fed a cholesterol test diet made of 10% coconut oil and 0.12% cholesterol (by weight) in Purina 5001 Rodent Chow to induce hypercholesteriolemia.
After two weeks on the cholesterol test diet the hamsters were bled from the orbital sinium under light CO2 anesthesia. Serum was prepared and analyzed for cholesterol using a commercial test kit (Cholesterol High Performance, Single Vial™, product of Boehringer Mannheim Corp., Indianapolis, IN, USA). The hamsters were separated into groups of six animals, such that each group had approximately the same mean serum cholesterol levels. Selected compounds of the invention were incorporated into the Cholesterol Test Diet at 0.2% (w/w) and fed to the hamsters for one week. A control group of hamsters continued on the Cholesterol Test Diet during the same one-week period. The dose of test compounds of the invention was equivalent to 100 mg/kg/day based on the weight of the hamsters and their diet consumption. Upon completion of the test period, the animals were bled and serum cholesterol determined as above.
Mean serum cholesterol values from the test hamsters were compared to values from the control group and tested for significance at the Z.05 level using Dunnett's test.

The subject of test [1] is human LDL receptor promoter. The experiment in a line: in vitro Luciferase Activity Test (LDL receptor promoter-luciferase reporter in recombinant CHO cells). Format: cell-based. Also noted: MED: unit not given here. The note with it: for Emax: Homo sapiens, CHO, read-out: MA%; for Emax / MA%: maximum activity (%) over control; for MED: minimum effective dose (molar concentration, unit not given), 24 hr, assay medium with 0.5 µg/ml 25-hydroxycholesterol; for RED: relative effective dose compared to compound of Example 4, below one = more active. Here is the method:
A 1546 base pair sequence of the human LDL receptor promoter was amplified using the polymerase chain reaction. A reaction mixture containing 20 pMoles each of the synthetic oligonucleotides 5'-[…]-3' (Seq. I.D. No: 1) and 5'-AAG-[…]-3', (Seq. I.D. No:2) 1 µg human genomic DNA purified from the adenocarcinoma cell line P3UCLA, 200 µM each of dATP, dGTP, dCTP, and TTP, 2.5 units of Taq DNA polymerase, 10mM Tris-HCI pH 8.3, 50 mM KCI, […], 0.1% gelatin in a final volume of 100 µl was subjected to 30 cycles of 15 sec at 96°C, 30 sec at 55°C, and 1 min at 72°C. The material was subject to gel electrophoresis on a 1% agarose gel and the 1546 base pair band was isolated and restriction enzyme digested with Hind III and Nde I. This fragment was ligated into the plasmid pSP72 (ProMega Biotech), which had previously been restriction enzyme nuclease digested with Hind III and Nde I. The resulting vector, pNLDLRP, was restriction endonulease digested with Ndel and Hind III and the material was again run on a 1% agarose gel to reisolate the 1546 bp LDL receptor sequence.
Plasmid vector PSv2 was constructed by digesting plasmid pSv2-globin with Hind III and Bgl II then ligating an Nrul-Xhol linker into the vector. Plasmid pSv2 globin is disclosed in U.S. Patent No. 4,775,624, the entire teaching of which is herein incorporated by reference. The linker contained the following sequences: [formula] (Seq. I.D. No: 3), and [formula] ' (Seq. I.D. No:4).
The resulting vector was designated pSv2-H NXB because it contained a […], an Nrul site, an Xhol site and a Bgl site. The Hind III-Bgl II fragment of plasmid pAlc4(NRRL B-18783), which contains the firefly luciferase gene, was then ligated into the Hin III-Bgl site of plasmid pSv2-HNXB. A neomycin resistance-conforming gene was then ligated into the Bam HI site of the resultant plasmid to form plasmid pSv2.
A 1546 base pair fragment was isolated and cloned into a Ndel and Hind III (partial) restriction digested vector pSv2 containing the firefly luciferase reporter gene and a gene for neomycin resistance. The resulting vector, pLDL-Luc1 Neo-10, contains the human LDL receptor promoter driving expression of the firefly luciferase gene, a gene coding for neomycin resistance, ampicillin resistant marker and an origin of replication.
Plasmid pLDL-Luc 1 Neo-10 was used to stably transfect Chinese Hamster Ovary cells using a Lipofection Reagent kit and procedure from Gibco BRL Research Products Division Life Technologies Inc. Transformants were selected by picking individual colonies grown in Dulbecco's modified Eagle's medium supplimented with 10% fetal bovine serum and containing 500 µg per ml […]. […] Clone S27/B30 was used for subsequent screening.
In developing a cell based screen it is important to have a negative control. The viral SV40 promoter is ideal for this purpose in that it has a number of SP1 elements that enhance gene transcription. These elements are not under the control of end product repression; but they do have a high degree of sequence homology with the 16 base pair long sterol response element found in the LDL receptor promoter. The SV40 promoter should therefore be a sensitive mechanism to screen out agents that induce nonspecific transcription.
Chinese Hamster Ovary cells were stably cotransfected with a vector pSV2AL-A 5' containing the SV40 promoter driving expression of the firefly luciferase gene and a second vector pSV2 NeoBam containing a neomycin resistant marker. Transfections were carried out using the Lipofectin Reagent kit and procedure from Gibco BRL Research Products Division Life Technologies Inc. Transformants were selected by picking individual colonies grown in Dulbecco's modified Eagle's medium supplemented with 10% fetal bovine serum and containing 500 µg per ml of geneticin. Individual clones were selected, lysed and assayed for luciferase production. […]
On the technique in general: In a reporter assay the amount or activity of a reporter protein is the signal.

The mark [2] stands for this setting: hamsters, 0.2% (w/w) in diet for one week (100 mg/kg/day), negative values = serum cholesterol increased relative to control.
Setting [3] is: NA is not active, 30% luciferase activity cutoff point (footnote 1).
Where [4] appears, read: tests using 30% luciferase activity cutoff point (footnote 1).
Setting [5] is: 30% luciferase activity cutoff point (footnote 1).
[6] abbreviates: 15% luciferase activity cutoff point (footnote 2).
The mark [7] stands for this setting: tests using 15% luciferase activity cutoff point (footnote 2).

Several values for one entry are separate records, joined by “and”; a condition that tells them apart may be missing. Identical values can stand only once. Like-named read-outs stand apart in the source and are kept apart here.

The results in this text go back to EP0562849A2, “Steroid derivatives” (priority 1992, dated 1993).

Take `CC(C)CCC[C@@H](C)[C@H]1CC[C@H]2[C@@H]3CC[C@H]4[C@H](CC=C(Br)Br)[C@H](O)CC[C@]4(C)[C@H]3CC[C@]12C` [(14), (3a,4a,5a)-4-(3,3-dibromo-2-propenyl)cholestan-3-ol]: in the test with Syrian Golden hamsters (setting [2]), the inhibition in vivo at 100 mg/kg/day is 23.2%. Moreover, the “Serum Cholesterol Mean” value in the test on Syrian Golden hamsters (hamsters) is reported as 259 mg/dL.
For the compound `CC(C)CCC[C@@H](C)[C@H]1CC[C@H]2[C@@H]3CCC4[C@H](Cc5ccccc5)C(=O)CC[C@]4(C)[C@H]3CC[C@]12C` (some centres unmarked) [(19), 4a-benzylcholestan-3-one], in the test with Syrian Golden hamsters (hamsters), the “Serum Cholesterol Mean” value turned out to be 312 mg/dL. Moreover, the “Percent Lowering of Cholesterol from Control Value Mean” value in the test on Syrian Golden hamsters (setting [2]) is recorded as 7.5%.
With `C=CCC1C(=O)CC[C@@]2(C)C1CC[C@H]1[C@@H]3CC[C@H]([C@H](C)CCCC(C)C)[C@@]3(C)CC[C@@H]12` (some centres unmarked) [(21), 4-(2-propenyl)cholestan-3-one], the inhibition in vivo at 100 mg/kg/day with Syrian Golden hamsters (setting [2]) is 2%. Besides, the “Serum Cholesterol Mean” value in the test with Syrian Golden hamsters (hamsters) was found to be 330 mg/dL.
Consider `CC(C)CCC[C@@H](C)[C@H]1CC[C@H]2[C@@H]3CC[C@H]4C[C@H](O)CC[C@]4(C)[C@H]3CC[C@]12C` [(24), 5a-cholestan-3a-ol, reference compound], for which the inhibition in vivo at 100 mg/kg/day in the test on Syrian Golden hamsters is -25%. Further, the “Serum Cholesterol Mean” value in the test with Syrian Golden hamsters (hamsters) is recorded as 422 mg/dL.
In the case of `C/C=C/C[C@@H]1[C@H](O)CC[C@@]2(C)[C@H]1CC[C@@H]1[C@@H]2CC[C@]2(C)[C@@H]([C@H](C)CCCC(C)C)CC[C@@H]12` [Example 4, [4a(E),5a]-4-(2-butenyl)cholestan-3a-ol], the Emax in test [1] (setting [3]) was determined as 80%. Moreover, the MED in test [1] (setting [4]) worked out at 2.2. Moreover, the RED in test [1] (setting [5]) amounted to 1.00. Besides, in the test with Syrian Golden hamsters (setting [2]), the inhibition in vivo at 100 mg/kg/day is 37.8%. Further, in the test with Syrian Golden hamsters (hamsters), the “Serum Cholesterol Mean” value turned out to be 210 mg/dL.
In the case of `CC(C)CCC[C@@H](C)[C@H]1CC[C@H]2[C@@H]3CCC4[C@H](Cc5ccc(F)cc5)[C@H](O)CC[C@]4(C)[C@H]3CC[C@]12C` (some centres unmarked) [Example 23, 4a-(4-fluorobenzyl)cholestan-3a-ol], in test [1] (setting [6]), the Emax was 49% and the MA% is listed as 37%. Also, in the test on Syrian Golden hamsters (setting [2]), the inhibition in vivo at 100 mg/kg/day came to 46.3%. The “Serum Cholesterol Mean” value with Syrian Golden hamsters (hamsters) worked out at 181 mg/dL.
With `CC(C)CCC[C@@H](C)[C@H]1CC[C@H]2[C@@H]3CCC4[C@H](Cc5ccc(I)cc5)[C@H](O)CC[C@]4(C)[C@H]3CC[C@]12C` (some centres unmarked) [Example 25, 4a-(4-iodobenzyl)cholestan-3a-ol], in test [1] (setting [6]), the MA% was 89% and 64% and 79%. In addition, the inhibition in vivo at 100 mg/kg/day in the test with Syrian Golden hamsters (setting [2]) stood at 28.8%. For the same compound, the “Serum Cholesterol Mean” value with Syrian Golden hamsters (hamsters) came out at 240 mg/dL.
As for `CC(C)CCC[C@@H](C)[C@H]1CC[C@H]2[C@@H]3CCC4[C@H](Cc5ccc(OC(F)(F)F)cc5)[C@H](O)CC[C@]4(C)[C@H]3CC[C@]12C` (some centres unmarked) [Example 30, 4a-(4-trifluoromethoxybenzyl)cholestan-3a-ol], in test [1] (setting [6]), the Emax stood at 76% and the RED was found to be 3.2. In test [1] (setting [3]), the MA% was 65% and 92%. Besides, the MED in test [1] (setting [7]) was 8.9. In test [1] (setting [4]), the MED was 17.3 and 8.9. Further, the inhibition in vivo at 100 mg/kg/day in the test on Syrian Golden hamsters (setting [2]) is 38%. Besides, the “Serum Cholesterol Mean” value in the test on Syrian Golden hamsters (hamsters) stood at 209 mg/dL.
Regarding `CC(C)CCC[C@@H](C)[C@H]1CC[C@H]2[C@@H]3CCC4[C@H](Cc5ccc(O)cc5)[C@H](O)CC[C@]4(C)[C@H]3CC[C@]12C` (some centres unmarked) [Example 36, 4a-(4-hydroxybenzyl)cholestan-3a-ol], in test [1] (setting [6]), the Emax came to 20% and the RED is recorded as 17.6. Further, in test [1] (setting [7]), the MED turned out to be 40. Besides, the inhibition in vivo at 100 mg/kg/day in the test with Syrian Golden hamsters (setting [2]) came out at 22.6%. For the same compound, the “Serum Cholesterol Mean” value in the test on Syrian Golden hamsters (hamsters) is 261 mg/dL.
For `C=CC[C@H]1C2CC[C@@H]3[C@H](CC[C@]4(C)C(OCCCC(C)C)CC[C@@H]34)[C@@]2(C)CC[C@H]1O` (stereo partly drawn) [Example 66, (3α,4α)-17-[(4-methylpentyl)oxy]-4-(2-propenyl)androstan-3-ol], in test [1] (setting [3]), the MA% is 73% and 100% and 105% and 118%. Also, the inhibition in vivo at 100 mg/kg/day in the test with Syrian Golden hamsters (setting [2]) came out at 30.7%. Further, the “Serum Cholesterol Mean” value in the test on Syrian Golden hamsters (hamsters) is on record as 234 mg/dL.
As for `C=CC[C@H]1C2CC[C@@H]3[C@H](CC[C@]4(C)C(OCc5ccccc5)CC[C@@H]34)[C@@]2(C)CC[C@H]1O` (stereo partly drawn) [Example 68, (3α,4α)-17-(phenylmethoxy)-4-(2-propenyl)androstan-3-ol], in test [1] (setting [3]), the Emax worked out at 42%; the MA% is 33% and 39%. Further, in the test on Syrian Golden hamsters (setting [2]), the inhibition in vivo at 100 mg/kg/day came to 8.6%. The “Serum Cholesterol Mean” value in the test on Syrian Golden hamsters (hamsters) turned out to be 309 mg/dL.
As for `C=CC[C@@H]1C[C@@]2(C)[C@@H](CC[C@@H]3[C@@H]2CC[C@]2(C)[C@@H]([C@H](C)CCCC(C)C)CC[C@@H]32)C[C@@H]1O` [Example 77, (2a, 3a, 5a)-2-(2-propenyl)cholestan-3-ol], in test [1] (setting [3]), the Emax came out at 60%. For the same compound, in test [1] (setting [4]), the MED is listed as 40.8. Also, the RED in test [1] (setting [5]) came to 4.6. The inhibition in vivo at 100 mg/kg/day in the test with Syrian Golden hamsters (setting [2]) stood at 38%. Besides, the “Serum Cholesterol Mean” value in the test with Syrian Golden hamsters (hamsters) stood at 209 mg/dL.
`C=CC[C@@H]1[C@@H](O)CC[C@@]2(C)[C@H]1CC[C@@H]1[C@@H]2CC[C@]2(C)[C@@H]([C@H](C)CCCC(C)C)CC[C@@H]12` [Example 80, (3β,4α,5α,20β)-4-(2-propenyl)cholestan-3-ol]: the inhibition in vivo at 100 mg/kg/day in the test with Syrian Golden hamsters (setting [2]) came out at 20.2%. In addition, in the test on Syrian Golden hamsters (hamsters), the “Serum Cholesterol Mean” value worked out at 269 mg/dL.
Regarding `C=CC[C@@H]1[C@H](OC(=O)CCCCCCCCCCCCCCCCC)CC[C@@]2(C)[C@H]1CC[C@@H]1[C@@H]2CC[C@]2(C)[C@@H]([C@H](C)CCCC(C)C)CC[C@@H]12` [Example 99, (3a,4a,5a)-4-(2-propenyl)cholestan-3-ol octadecanoate (ester)], the “Serum Cholesterol Mean” value in the test with Syrian Golden hamsters (hamsters) was 328 mg/dL. In addition, the “Percent Lowering of Cholesterol from Control Value Mean” value with Syrian Golden hamsters (setting [2]) is 2.7%.
For “(3β,4α,5α,20β)-4-(2-propenyl)cholestan-3-amine [(22)]”, in that order: 345 mg/dL and -2.4%.
